Values of other authors, collected in US20120101124A1, “1,2,4-OXADIAZOL DERIVATIVES, THEIR PHARMACEUTICAL COMPOSITIONS AND THEIR USE AS SPHINGOSINE 1-PHOSPHATE 1 RECEPTOR AGONISTS” (GLAXO GROUP LIMITED, priority 2009, published 2012).

What was measured:
[1] = clinical studies
circulating lymphocytes = conditions: animals and man

## CCCCCCCCc1ccc(CCC(N)(CO)CO)cc1 [FTY720]
[1]
  bradycardia on treatment: bradycardia in the first 24 hours of treatment
Circulating lymphocytes
  effect on circulating lymphocytes: reduce circulating lymphocytes in animals and man
